Measured values published in ChEMBL document CHEMBL4316588, “Design, Synthesis, and Biological Evaluation of Novel DNA Gyrase-Inhibiting Spiropyrimidinetriones as Potent Antibiotics for Treatment of Infections Caused by Multidrug-Resistant Gram-Positive Bacteria” (J Med Chem, 2019).
Converted amounts (≈) assume the structure as drawn.

Tests used:
[1] = system: Staphylococcus aureus; assay: Antibacterial activity against methicillin-sensitive Staphylococcus aureus after 18 to 20 hrs by CLSI-protocol based broth microdilution method; type: functional; details: Staphylococcus aureus; read-out: MIC
[2] = system: Staphylococcus aureus; assay: Antibacterial activity against methicillin-resistant Staphylococcus aureus after 18 to 20 hrs by CLSI-protocol based broth microdilution method; type: functional
[3] = system: Staphylococcus epidermidis; assay: Antibacterial activity against methicillin-sensitive Staphylococcus epidermidis after 18 to 20 hrs by CLSI-protocol based broth microdilution method; type: functional
[4] = system: Staphylococcus epidermidis; assay: Antibacterial activity against methicillin-resistant Staphylococcus epidermidis after 18 to 20 hrs by CLSI-protocol based broth microdilution method; type: functional
[5] = system: Streptococcus pneumoniae; assay: Antibacterial activity against penicillin-resistant Streptococcus pneumoniae after 18 to 20 hrs by CLSI-protocol based broth microdilution method; type: functional
[6] = system: Streptococcus pyogenes; assay: Antibacterial activity against Streptococcus pyogenes after 18 to 20 hrs by CLSI-protocol based broth microdilution method; type: functional
[7] = system: Neisseria gonorrhoeae; assay: Antibacterial activity against Neisseria gonorrhoeae after 18 to 20 hrs by CLSI-protocol based agar microdilution method; type: functional
[8] = AUCt in CD1 mouse at 10 mg/kg, po by LC-MS/MS analysis; type: ADME, organism-based; details: in vivo
[9] = MRT in CD1 mouse at 10 mg/kg, po by LC-MS/MS analysis; type: ADME, organism-based; details: in vivo
[10] = Cmax in CD1 mouse at 10 mg/kg, po by LC-MS/MS analysis; type: ADME, organism-based; design: dose 10 mg/kg, route oral; details: in vivo
[11] = Tmax in CD1 mouse at 10 mg/kg, po by LC-MS/MS analysis; type: ADME, organism-based; details: in vivo
[12] = Elimination half life in CD1 mouse at 10 mg/kg, po by LC-MS/MS analysis; type: ADME, organism-based; details: in vivo, read-out: beta t1/2 (converted)
[13] = Solubility of the compound in pH 6.8 intestinal juice incubated at 37 degC for 24 hrs by LC/MS/MS analysis; type: physicochemical
[14] = Solubility of the compound in pH 1.2 gastric juice incubated at 37 degC for 24 hrs by LC/MS/MS analysis; type: physicochemical
[15] = Solubility of the compound in water incubated at 37 degC for 24 hrs by LC/MS/MS analysis; type: physicochemical
[16] = target: DNA topoisomerase 2-alpha (Homo sapiens, UniProt P11388); assay: Inhibition of human topoisomerase-2alpha using catenated DNA as substrate after 30 mins by ethidium bromide-based gel electrophoresis
[17] = system: Staphylococcus aureus; assay: Antibacterial activity against methicillin-sensitive Staphylococcus aureus infected in Kunming mouse treated with 50 mg/kg cytochrome P450 inhibitor ABT dosed subcutaneously at 0.5 and 4.0 hrs postinfection followed by and measured at 7 to 14 days post treatment by Bliss method; type: functional; details: sc
[18] = system: Staphylococcus aureus; assay: Antibacterial activity against methicillin-resistant Staphylococcus aureus infected in Kunming mouse treated with 50 mg/kg cytochrome P450 inhibitor ABT dosed subcutaneously at 0.5 and 4.0 hrs postinfection followed by and measured at 7 to 14 days post treatment by Bliss method; type: functional; details: sc
[19] = target: DNA gyrase (Staphylococcus aureus, UniProt P0A0K8+P20831)
Description: Inhibition of Staphylococcus aureus DNA gyrase supercoiling activity using relaxed pHOT-1 DNA as substrate after 60 mins by ethidium bromide-based gel electrophoresis

[20] = target: T1, Cytochrome P450 3A4 (Homo sapiens, UniProt P08684); assay: Inhibition of CYP3A4 in human liver microsomes using midazolam as substrate preincubated for 10 mins followed by NADPH addition and measured for 15 mins by LC-MS/MS analysis; type: ADME
[21] = AUCt in Sprague-Dawley rat at 10 mg/kg, iv by LC-MS/MS analysis; type: ADME, organism-based; details: in vivo
[22] = AUCt in Sprague-Dawley rat at 10 mg/kg, po by LC-MS/MS analysis; type: ADME, organism-based; details: in vivo
[23] = AUCt in Sprague-Dawley rat at 100 mg/kg, po by LC-MS/MS analysis; type: ADME, organism-based; details: in vivo
[24] = Cmax in Sprague-Dawley rat at 10 mg/kg, po by LC-MS/MS analysis; type: ADME, organism-based; design: dose 10 mg/kg, route oral; details: in vivo
[25] = Cmax in Sprague-Dawley rat at 100 mg/kg, po by LC-MS/MS analysis; type: ADME, organism-based; design: dose 100 mg/kg, route oral; details: in vivo
[26] = Elimination half life in Sprague-Dawley rat at 10 mg/kg, iv by LC-MS/MS analysis; type: ADME, organism-based; details: in vivo, read-out: beta t1/2 (converted)
[27] = Elimination half life in Sprague-Dawley rat at 10 mg/kg, po by LC-MS/MS analysis; type: ADME, organism-based; details: in vivo, read-out: beta t1/2 (converted)
[28] = Elimination half life in Sprague-Dawley rat at 100 mg/kg, po by LC-MS/MS analysis; type: ADME, organism-based; details: in vivo, read-out: beta t1/2 (converted)
[29] = Clearance in Sprague-Dawley rat at 10 mg/kg, iv by LC-MS/MS analysis; type: ADME, organism-based; details: in vivo
[30] = Volume of distribution at steady state in Sprague-Dawley rat at 10 mg/kg, iv by LC-MS/MS analysis; type: ADME, organism-based; details: in vivo, read-out: Vdss
[31] = Oral bioavailability in Sprague-Dawley rat at 10 mg/kg by LC-MS/MS analysis; type: ADME, organism-based; details: in vivo
[32] = Oral bioavailability in Sprague-Dawley rat at 100 mg/kg by LC-MS/MS analysis; type: ADME, organism-based; details: in vivo
[33] = AUCt in Beagle dog at 2.5 mg/kg, iv by LC-MS/MS analysis; type: ADME, organism-based, Canis lupus familiaris; details: in vivo
[34] = AUCt in Beagle dog at 5 mg/kg, po by LC-MS/MS analysis; type: ADME, organism-based, Canis lupus familiaris; details: in vivo
[35] = Cmax in Beagle dog at 5 mg/kg, po by LC-MS/MS analysis; type: ADME, organism-based, Canis lupus familiaris; design: dose 5 mg/kg, route oral; details: in vivo
[36] = Elimination half life in Beagle dog at 2.5 mg/kg, iv by LC-MS/MS analysis; type: ADME, organism-based, Canis lupus familiaris; details: in vivo, read-out: beta t1/2 (converted)
[37] = Elimination half life in Beagle dog at 5 mg/kg, po by LC-MS/MS analysis; type: ADME, organism-based, Canis lupus familiaris; details: in vivo, read-out: beta t1/2 (converted)
[38] = Clearance in Beagle dog at 2.5 mg/kg, iv by LC-MS/MS analysis; type: ADME, organism-based, Canis lupus familiaris; details: in vivo
[39] = Volume of distribution at steady state in Beagle dog at 2.5 mg/kg, iv by LC-MS/MS analysis; type: ADME, organism-based, Canis lupus familiaris; details: in vivo, read-out: Vdss
[40] = Oral bioavailability in Beagle dog at 5 mg/kg by LC-MS/MS analysis; type: ADME, organism-based, Canis lupus familiaris; details: in vivo
[41] = target: Voltage-gated inwardly rectifying potassium channel KCNH2 (Homo sapiens, UniProt Q12809); assay: Inhibition of human ERG expressed in CHO cells in at -80 mV holding potential by automated Qpatch clamp assay; type: cell-based
[42] = target: T2, Cytochrome P450 1A2 (Homo sapiens, UniProt P05177); assay: Inhibition of CYP1A2 in human liver microsomes using phenacetin as substrate preincubated for 10 mins followed by NADPH addition and measured for 15 mins by LC-MS/MS analysis; type: ADME
T2 sequence (P05177 whole entry): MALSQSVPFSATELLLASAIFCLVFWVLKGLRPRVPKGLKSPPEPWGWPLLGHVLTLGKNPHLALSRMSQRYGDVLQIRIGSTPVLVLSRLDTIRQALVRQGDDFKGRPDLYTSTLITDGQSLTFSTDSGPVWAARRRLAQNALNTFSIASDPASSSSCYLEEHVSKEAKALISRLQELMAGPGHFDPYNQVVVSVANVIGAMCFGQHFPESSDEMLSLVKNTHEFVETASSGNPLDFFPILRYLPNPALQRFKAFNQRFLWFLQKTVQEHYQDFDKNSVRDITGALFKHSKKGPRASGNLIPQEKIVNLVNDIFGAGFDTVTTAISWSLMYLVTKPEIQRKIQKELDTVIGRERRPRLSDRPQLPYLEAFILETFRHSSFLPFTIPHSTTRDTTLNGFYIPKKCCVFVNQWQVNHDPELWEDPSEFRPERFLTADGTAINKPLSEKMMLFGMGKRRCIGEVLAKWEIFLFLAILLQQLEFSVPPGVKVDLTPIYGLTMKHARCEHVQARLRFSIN

[43] = target: Cytochrome P450 2C19 (Homo sapiens, UniProt P33261); assay: Inhibition of CYP2C19 in human liver microsomes using mephenytoin as substrate preincubated for 10 mins followed by NADPH addition and measured for 15 mins by LC-MS/MS analysis; type: ADME
[44] = target: Cytochrome P450 2C9 (Homo sapiens, UniProt P11712); assay: Inhibition of CYP2C9 in human liver microsomes using tolbutamide as substrate preincubated for 10 mins followed by NADPH addition and measured for 15 mins by LC-MS/MS analysis; type: ADME
[45] = target: Cytochrome P450 2D6 (Homo sapiens, UniProt P10635); assay: Inhibition of CYP2D6 in human liver microsomes using dextromethorphan as substrate preincubated for 10 mins followed by NADPH addition and measured for 15 mins by LC-MS/MS analysis; type: ADME
[46] = target: T1, Cytochrome P450 3A4; assay: Inhibition of CYP3A4 in human liver microsomes using testosterone as substrate preincubated for 10 mins followed by NADPH addition and measured for 15 mins by LC-MS/MS analysis; type: ADME
[47] = system: Staphylococcus aureus; assay: Antibacterial activity against methicillin-sensitive Staphylococcus aureus infected in Kunming mouse dosed subcutaneously at 0.5 and 4.0 hrs postinfection and measured at 7 to 14 days post treatment by Bliss method; type: functional; details: sc
[48] = system: Staphylococcus aureus; assay: Antibacterial activity against methicillin-resistant Staphylococcus aureus infected in Kunming mouse dosed subcutaneously at 0.5 and 4.0 hrs postinfection and measured at 7 to 14 days post treatment by Bliss method; type: functional; details: sc

T1 sequence (P08684 whole entry): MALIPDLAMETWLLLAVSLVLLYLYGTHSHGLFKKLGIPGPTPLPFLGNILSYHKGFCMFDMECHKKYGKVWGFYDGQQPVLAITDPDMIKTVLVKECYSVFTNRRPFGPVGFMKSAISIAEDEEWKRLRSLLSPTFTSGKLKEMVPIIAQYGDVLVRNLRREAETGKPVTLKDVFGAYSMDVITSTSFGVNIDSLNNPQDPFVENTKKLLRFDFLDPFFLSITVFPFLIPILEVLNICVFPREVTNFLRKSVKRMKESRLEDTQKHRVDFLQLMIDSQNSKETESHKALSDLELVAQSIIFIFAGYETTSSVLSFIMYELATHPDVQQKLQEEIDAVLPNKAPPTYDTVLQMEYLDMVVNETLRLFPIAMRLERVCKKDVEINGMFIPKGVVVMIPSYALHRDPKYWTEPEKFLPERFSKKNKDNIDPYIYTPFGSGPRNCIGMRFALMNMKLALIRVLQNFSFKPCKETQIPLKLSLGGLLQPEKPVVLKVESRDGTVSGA
DNA gyrase, sequence (P0A0K8 whole entry): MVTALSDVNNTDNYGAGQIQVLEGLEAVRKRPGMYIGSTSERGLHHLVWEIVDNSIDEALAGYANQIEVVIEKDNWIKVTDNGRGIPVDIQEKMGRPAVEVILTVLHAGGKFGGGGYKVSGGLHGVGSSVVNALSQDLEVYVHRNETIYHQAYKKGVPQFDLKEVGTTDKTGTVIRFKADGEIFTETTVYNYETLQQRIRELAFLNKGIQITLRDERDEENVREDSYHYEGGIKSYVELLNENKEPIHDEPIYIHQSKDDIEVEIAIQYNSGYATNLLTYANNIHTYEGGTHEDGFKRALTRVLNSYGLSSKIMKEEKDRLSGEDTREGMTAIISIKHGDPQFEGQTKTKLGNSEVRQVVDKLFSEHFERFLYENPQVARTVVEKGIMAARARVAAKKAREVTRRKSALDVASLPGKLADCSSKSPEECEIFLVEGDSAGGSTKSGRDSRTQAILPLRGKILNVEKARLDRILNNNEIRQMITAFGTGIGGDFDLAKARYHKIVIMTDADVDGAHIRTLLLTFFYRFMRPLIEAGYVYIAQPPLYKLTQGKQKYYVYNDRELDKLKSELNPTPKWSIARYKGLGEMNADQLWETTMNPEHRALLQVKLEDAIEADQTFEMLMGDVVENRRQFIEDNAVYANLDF
DNA gyrase, sequence (P20831 whole entry): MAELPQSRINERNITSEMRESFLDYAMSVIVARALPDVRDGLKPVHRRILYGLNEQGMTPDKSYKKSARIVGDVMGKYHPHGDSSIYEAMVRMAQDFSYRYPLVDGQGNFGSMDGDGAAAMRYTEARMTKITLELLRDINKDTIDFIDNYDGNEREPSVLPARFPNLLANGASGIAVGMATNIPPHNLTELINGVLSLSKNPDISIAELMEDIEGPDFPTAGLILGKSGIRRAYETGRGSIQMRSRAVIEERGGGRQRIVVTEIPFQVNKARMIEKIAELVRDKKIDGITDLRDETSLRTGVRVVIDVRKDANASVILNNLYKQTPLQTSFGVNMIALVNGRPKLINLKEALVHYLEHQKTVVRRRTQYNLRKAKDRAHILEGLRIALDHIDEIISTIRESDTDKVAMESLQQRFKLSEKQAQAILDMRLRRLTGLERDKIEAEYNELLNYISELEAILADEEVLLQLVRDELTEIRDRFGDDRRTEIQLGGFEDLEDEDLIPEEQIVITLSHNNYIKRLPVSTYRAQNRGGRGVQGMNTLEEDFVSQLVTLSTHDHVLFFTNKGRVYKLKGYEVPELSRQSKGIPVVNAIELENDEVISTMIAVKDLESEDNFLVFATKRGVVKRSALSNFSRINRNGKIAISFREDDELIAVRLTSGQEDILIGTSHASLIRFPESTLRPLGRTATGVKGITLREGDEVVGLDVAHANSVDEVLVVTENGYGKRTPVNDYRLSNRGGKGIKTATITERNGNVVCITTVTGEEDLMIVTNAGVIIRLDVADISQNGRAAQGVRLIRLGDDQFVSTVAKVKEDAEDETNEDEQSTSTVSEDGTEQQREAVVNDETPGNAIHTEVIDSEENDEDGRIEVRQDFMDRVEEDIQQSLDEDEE
DNA topoisomerase 2-alpha, sequence (P11388 whole entry): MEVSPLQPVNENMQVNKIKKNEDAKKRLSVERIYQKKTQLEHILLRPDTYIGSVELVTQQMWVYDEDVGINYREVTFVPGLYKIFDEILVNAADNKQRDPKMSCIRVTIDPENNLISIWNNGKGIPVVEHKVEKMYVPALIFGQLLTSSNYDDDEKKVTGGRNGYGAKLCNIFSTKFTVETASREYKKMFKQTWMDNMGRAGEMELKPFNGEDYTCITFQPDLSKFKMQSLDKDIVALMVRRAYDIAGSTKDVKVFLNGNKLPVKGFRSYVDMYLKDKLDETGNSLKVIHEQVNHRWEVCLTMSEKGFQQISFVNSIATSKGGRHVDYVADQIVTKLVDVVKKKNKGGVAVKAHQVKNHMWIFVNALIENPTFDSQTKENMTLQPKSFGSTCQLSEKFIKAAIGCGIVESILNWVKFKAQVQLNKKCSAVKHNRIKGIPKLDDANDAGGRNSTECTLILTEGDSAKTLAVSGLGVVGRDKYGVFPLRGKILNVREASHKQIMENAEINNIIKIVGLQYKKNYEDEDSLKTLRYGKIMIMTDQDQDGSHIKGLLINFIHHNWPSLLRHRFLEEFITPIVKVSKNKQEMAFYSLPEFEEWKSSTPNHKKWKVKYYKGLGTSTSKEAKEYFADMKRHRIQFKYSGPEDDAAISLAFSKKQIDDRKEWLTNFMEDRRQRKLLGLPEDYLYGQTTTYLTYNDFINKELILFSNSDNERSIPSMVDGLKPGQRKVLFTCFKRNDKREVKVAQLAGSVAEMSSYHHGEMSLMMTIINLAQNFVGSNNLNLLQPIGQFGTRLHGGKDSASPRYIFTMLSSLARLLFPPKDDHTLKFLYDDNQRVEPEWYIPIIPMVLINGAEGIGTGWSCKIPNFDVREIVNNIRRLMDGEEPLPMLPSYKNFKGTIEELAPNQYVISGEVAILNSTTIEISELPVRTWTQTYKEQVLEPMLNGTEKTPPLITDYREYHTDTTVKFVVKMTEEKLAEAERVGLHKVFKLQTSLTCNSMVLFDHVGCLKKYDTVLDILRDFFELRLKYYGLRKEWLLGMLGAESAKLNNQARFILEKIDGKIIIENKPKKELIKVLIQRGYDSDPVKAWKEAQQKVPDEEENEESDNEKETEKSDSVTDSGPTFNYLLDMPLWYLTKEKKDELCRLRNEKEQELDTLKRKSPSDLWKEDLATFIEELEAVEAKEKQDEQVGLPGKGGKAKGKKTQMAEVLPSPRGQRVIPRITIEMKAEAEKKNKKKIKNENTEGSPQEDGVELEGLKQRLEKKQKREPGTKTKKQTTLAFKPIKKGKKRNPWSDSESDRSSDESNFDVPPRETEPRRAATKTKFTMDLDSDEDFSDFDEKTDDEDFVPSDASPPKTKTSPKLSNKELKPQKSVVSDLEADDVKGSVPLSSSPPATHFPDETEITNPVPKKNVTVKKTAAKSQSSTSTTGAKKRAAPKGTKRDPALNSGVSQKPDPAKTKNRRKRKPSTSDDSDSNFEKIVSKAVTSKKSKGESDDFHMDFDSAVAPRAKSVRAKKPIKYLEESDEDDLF
Voltage-gated inwardly rectifying potassium channel KCNH2, sequence (Q12809 whole entry): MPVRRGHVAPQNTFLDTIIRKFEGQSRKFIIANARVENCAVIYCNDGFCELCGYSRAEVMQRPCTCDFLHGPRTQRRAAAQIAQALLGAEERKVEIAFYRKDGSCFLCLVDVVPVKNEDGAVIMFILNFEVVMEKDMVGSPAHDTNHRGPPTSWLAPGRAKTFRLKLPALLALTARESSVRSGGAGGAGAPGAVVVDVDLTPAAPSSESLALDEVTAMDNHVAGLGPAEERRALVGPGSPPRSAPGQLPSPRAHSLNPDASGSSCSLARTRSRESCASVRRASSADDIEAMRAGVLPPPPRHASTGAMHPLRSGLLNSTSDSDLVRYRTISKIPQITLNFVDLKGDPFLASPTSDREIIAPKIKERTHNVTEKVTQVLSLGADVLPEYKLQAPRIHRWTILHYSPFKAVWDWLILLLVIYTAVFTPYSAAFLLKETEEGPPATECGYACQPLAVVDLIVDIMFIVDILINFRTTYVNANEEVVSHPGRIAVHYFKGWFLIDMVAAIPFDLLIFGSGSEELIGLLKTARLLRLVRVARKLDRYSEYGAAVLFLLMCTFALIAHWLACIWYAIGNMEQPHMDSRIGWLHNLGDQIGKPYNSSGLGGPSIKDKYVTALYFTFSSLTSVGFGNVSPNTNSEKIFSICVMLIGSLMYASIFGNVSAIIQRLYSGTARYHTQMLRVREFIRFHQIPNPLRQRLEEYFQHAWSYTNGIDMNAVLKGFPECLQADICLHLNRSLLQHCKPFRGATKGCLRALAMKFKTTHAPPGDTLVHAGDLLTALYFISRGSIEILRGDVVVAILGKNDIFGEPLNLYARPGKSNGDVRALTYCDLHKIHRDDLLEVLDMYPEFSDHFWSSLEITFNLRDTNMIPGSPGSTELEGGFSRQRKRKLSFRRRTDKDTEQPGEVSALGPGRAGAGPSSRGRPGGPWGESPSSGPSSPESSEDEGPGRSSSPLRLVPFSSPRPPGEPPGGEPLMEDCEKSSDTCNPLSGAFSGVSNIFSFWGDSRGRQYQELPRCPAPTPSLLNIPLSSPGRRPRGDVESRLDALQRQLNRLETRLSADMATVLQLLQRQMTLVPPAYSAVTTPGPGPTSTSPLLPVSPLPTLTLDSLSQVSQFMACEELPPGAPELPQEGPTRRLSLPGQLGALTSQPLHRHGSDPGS

Compound `C[C@@H]1CN2c3c(cc4c(N5CCOC5=O)noc4c3F)CC3(C(=O)NC(=O)NC3=O)[C@H]2[C@H](C)O1` has an MIC [1] of 0.125 to 0.25 µg/mL (≈ 0.264 to 0.528 µM), an MIC [2] of 0.03 to 1 µg/mL (≈ 0.0634 to 2.11 µM) and an MIC [3] of 0.06 to 0.25 µg/mL (≈ 0.127 to 0.528 µM). It also gave an MIC [4] of 0.03 to 0.25 µg/mL (≈ 0.0634 to 0.528 µM), an MIC [5] of 0.25 to 1 µg/mL (≈ 0.528 to 2.11 µM) and an MIC ([6]; Streptococcus pyogenes, read-out: MIC) of 0.25 to 0.5 µg/mL (≈ 0.528 to 1.06 µM). It also gave an MIC50 [7] of 0.03 µg/mL (≈ 0.0634 µM), an MIC90 [7] of 0.125 µg/mL (≈ 0.264 µM) and an AUC(0-t) [8] of 748 ng·h/mL. The MRT [9] was 7.06 h, the Cmax [10] was 183 ng/mL and the Tmax [11] was 0.58 h. It also gave a half-life [12] of 3.41 h, a solubility at 24 h [13] of 139 µM (≈ 65.8 µg/mL) and a solubility at 24 h [14] of 121 µM (≈ 57.3 µg/mL). The solubility at 24 h [15] was 128 µM (≈ 60.6 µg/mL), the IC50 [16] was greater than 200 µM and the ED50 [17] was 11 mg/kg. For the same compound, the ED50 [18] was 11.5 mg/kg and the IC50 [19] was 24.3 µM.

For `C[C@@H]1CN2c3c(cc4c(N5CC6(CC6)OC5=O)noc4c3F)CC3(C(=O)NC(=O)NC3=O)[C@H]2[C@H](C)O1`, the IC50 [20] was greater than 25 µM, the MIC [1] was no more than 0.03 µg/mL and the MIC [6] was less than 0.03 µg/mL. It also gave an MIC50 [7] of 0.06 µg/mL (≈ 0.12 µM), an MIC90 [7] of 0.125 µg/mL (≈ 0.25 µM) and an AUC(0-t) [8] of 24200 ng·h/mL. For the same compound, the MRT [9] was 8.94 h, the Cmax [10] was 2580 ng/mL and the Tmax [11] was 2.67 h. It also gave a half-life [12] of 6.2 h, an AUC(0-t) [21] of 104000 ng·h/mL and an AUC(0-t) [22] of 23600 ng·h/mL. For the same compound, the AUC(0-t) [23] was 478000 ng·h/mL, the Cmax [24] was 2260 ng/mL and the Cmax [25] was 35400 ng/mL. For the same compound, the half-life [26] was 3.82 h, the half-life [27] was 3.71 h and the half-life [28] was 5.58 h. For the same compound, the clearance [29] was 1.57 mL/min/kg, the Vd [30] was 0.482 L/kg and the bioavailability [31] was 22.6%. The bioavailability [32] was 45.8%, the AUC(0-t) [33] was 9100 ng·h/mL and the AUC(0-t) [34] was 17500 ng·h/mL. It also gave a Cmax [35] of 2860 ng/mL, a half-life [36] of 3.49 h and a half-life [37] of 3.65 h. The clearance [38] was 4.91 mL/min/kg, the Vd [39] was 1 L/kg and the bioavailability [40] was 96.6%. The solubility at 24 h [13] was 204 µM (≈ 102 µg/mL), the solubility at 24 h [14] was 151 µM (≈ 75.4 µg/mL) and the solubility at 24 h [15] was 277 µM (≈ 138 µg/mL). For the same compound, the IC50 [41] was greater than 40 µM, the IC50 [42] was 13 µM and the IC50 [43] was greater than 25 µM. For the same compound, the IC50 [44] was greater than 25 µM, the IC50 [45] was greater than 25 µM and the IC50 [46] was greater than 25 µM. For the same compound, the IC50 [16] was greater than 200 µM, the ED50 [47] was 8.37 mg/kg and the ED50 [48] was 3.87 mg/kg. The IC50 [19] was 7.8 µM.
